Reference: US9145381B2, “Derivative of [(3-hydroxy-4-pyron-2-yl)-methyl]-amine and use thereof as anti-neoplastic drugs” (Universita' Degli Studi Di Urbino, priority 2008, dated 2015)

Assays:
Format in all cases: cell-based
[1] = tested on: HeLa cells (uterine cervix cancer); test: Antiproliferative activity, Trypan blue viability; settings: 72 hours, treatments repeated every 24 hours, maximum over the lines
Experimental: (§1) FIGS. 3 and 4 show a diagram with the inhibiting concentrations (IC50) of L1 (FIG. 3) and L9 (FIG. 4) in different tumour cell lines. Cells in an exponential growth phase were treated for 72 hours with L1 and L9 and then harvested and stained with Trypan blue in order to determine viability. The values of IC50 have been computed for each compound as the concentration that can determine a 50% reduction in viable cells with respect to a non-treated control.
(§2) In order to evaluate the ability of these compounds to inhibit the proliferation of tumour cells in vitro, eight cell lines were selected, four deriving from haematopoietic tumours and four deriving from solid tumours. The tested hematopoietic lines comprise three myeloid tumour cell lines (U937—acute monocytic leukaemia, NB4—acute promyelocytic leukaemia, HL-60—acute myeloid leukaemia) and a lymphoid tumour cell line (JURKAT—T cell leukaemia), while cell lines deriving from multiform glioblastoma (U-373MG), from uterine cervix cancer (HeLa), from malignant pleural mesothelioma (H-28) and from rhabdomyosarcoma (RH-4) have been used as lines representative of solid tumours. Each cell line has been grown in the appropriate growth medium at 37° C. (RPMI 1640 for the hematopoietic lines and DMEM for the adhering cells deriving from solid tumours—Cambrex, Walkersville, Md., USA) added with 10% FBS, 1% glutamine, 100 IU/ml penicillin, 100 μg/ml streptomycin in a highly humidified atmosphere at 5% CO2. The hematopoietic populations were diluted with preheated growth medium at 37° C. at a concentration of 1×10^5 cells/ml and aliquots of 2 ml were aliquoted in each single well of 6-well plates. The adhering cells were trypsinized, diluted with preheated growth medium at 37° C. and 0.5×10^5 cells were aliquoted in each single well of 6-well plates. The cells in an exponential growth phase were treated with different concentrations of L1 or L9. Both compounds were diluted in distilled water and the treatments were repeated every 24 hours. 72 hours after starting the treatments, cell viability was evaluated by means of Trypan blue staining and the inhibiting concentration (IC50) was computed for each cell line as the concentration allowing to reduce by 50% the number of viable cells, with respect to a non-treated control.

[2] = tested on: RH-4 cells (rhabdomyosarcoma); test: Antiproliferative activity, Trypan blue viability; settings: 72 hours, treatments repeated every 24 hours, minimum over the lines
Experimental: as §1, §2

[3] = tested on: cell lines deriving from solid tumours (U-373MG, HeLa, H-28, RH-4); test: Antiproliferative activity, Trypan blue viability; settings: cells deriving from solid tumours, 72 hours
Experimental: as §1, §2

[4] = tested on: hematopoietic cells (U937, NB4, HL-60, JURKAT); test: Antiproliferative activity, Trypan blue viability; settings: 72 hours
Experimental: as §1, §2

tumour cell lines = test: Cell cycle and apoptosis, propidium iodide cytofluorimetric analysis; settings: 72 hour treatment; for interruption of the cell cycle: tested tumour cell lines in general, different concentrations
Experimental: (§3) FIG. 5: Apoptosis induced by L1 after treatment for 72 hours at a concentration of 50 μM. FIGS. 6-13: Effects of L1 on the percentages of the different phases of the cell cycle after a 72 hour treatment at different concentrations. FIG. 14: Apoptosis induced by L9 after a 72 hour treatment at a concentration of 5 μM. FIGS. 15-22: Effects of L9 on the percentages of the different phases of the cell cycle after a 72 hour treatment at different concentrations.
(§4) The effects of L1 and L9 on the progression of the cell cycle and on its hypothetical ability to induce the apoptotic process were evaluated by cytofluorimetric analysis by means of propidium iodide staining of all of the previously tested cell lines. Cell treated with different concentrations of the two compounds, as previously disclosed, have been harvested and washed with cold phosphate buffer (1×PBS). The cells were resuspended in cold 70% ethanol and fixed at +4° C. for 24 hours. All of the samples were then centrifuged at 1300 rpm at +4° C. for 3 minutes and then resuspended in a solution containing propidium iodide (1×PBS; 0.1% Triton X-100, 0.1% sodium citrate, 250 μg/ml RNasi A, 50 μg/ml propidium iodide) and, after 24 hours of incubation at +4° C., a minimum of 1×10^4 events were acquired at the BD FACScan cytofluorimeter (BD Biosciences, San Jose, Calif., USA). The acquisitions were analysed by a FlowJo 5.7.2 software (Tree Star, Inc., Ashland, Oreg., USA) in order to determine the percentage of cells in different phases of the cell cycle and displaying hypoploid conditions (Apoptotic cells). The induction of programmed cell death was computed as the difference between the percentage of hypodiploid cells in treated and non-treated samples.

HL-60 cells = test: Cell cycle, propidium iodide cytofluorimetric analysis; settings: HL-60 (printed H1-60 / JL-60), 72 hour treatment
Experimental: as §3, §4

HeLa cells = test: as above; settings: 72 hour treatment
Experimental: as §3, §4

JURKAT cells = test: as above; settings: 72 hour treatment
Experimental: as §3, §4

RH-4 cells = test: as above; settings: RH-4, 72 hour treatment
Experimental: as §3, §4

U937 cells = test: Fragmentation of genomic DNA, agarose gel electrophoresis; settings: U937, 72 hours; L1 25, 50, 100 μM; L9 2.5, 5, 10 μM
Experimental: The cells were treated for 72 hours with L1 and L9 at the concentrations shown in the Figure, the genomic DNA was then extracted, separated on a 2% agarose gel and stained with ethidium bromide.
The induction of apoptosis by compounds L1 and L9 has further been confirmed with the analysis of the fragmentation of the genomic DNA carried out by electrophoresis on an agarose gel. U937 cells treated with L1 (non-treated as a control) at concentrations of 25, 50, 100 μM and L9 at concentrations of 2.5, 5, 10 μM for 72 hours were harvested (about 2×10^6 cells), washed with cold 1×PBS and incubated in 2 ml of 1×TBS, 0.5% Tween20, 1 mM EDTA for 30 minutes at +4° C. After being centrifuged at 1200 rpm, for 5 minutes at +4° C., the cells were incubated in 0.5 ml of a solution at 0.1% SDS for 30 minutes at room temperature. The genomic DNA was then extracted by using a QIAquick Gel Extraction Kit (Qiagen, Hilden, Germany), electrophoretically separated by means of a 2% agarose gel and stained with ethidium bromide.

[5] = tested on: all tested tumour cell lines (U937, NB4, HL-60, JURKAT, U-373MG, HeLa, H-28, RH-4); test: Antiproliferative activity, Trypan blue viability; settings: range over the tested cell lines, 72 hours, read-out: IC50 values in the different tested cell lines
Experimental: In order to evaluate the ability of these compounds to inhibit the proliferation of tumour cells in vitro, eight cell lines were selected, four deriving from haematopoietic tumours and four deriving from solid tumours. […] Each cell line has been grown in the appropriate growth medium at 37° C. […] The hematopoietic populations were diluted with preheated growth medium at 37° C. at a concentration of 1×10^5 cells/ml and aliquots of 2 ml were aliquoted in each single well of 6-well plates. The adhering cells were trypsinized, diluted with preheated growth medium at 37° C. and 0.5×10^5 cells were aliquoted in each single well of 6-well plates. […] Both compounds were diluted in distilled water and the treatments were repeated every 24 hours.

H-28 cells = test: Cell cycle, propidium iodide cytofluorimetric analysis; settings: H-28, 72 hour treatment
Experimental: as §3, §4

SMILES: CN(CCN(C)Cc1occc(=O)c1O)Cc1occc(=O)c1O [Compound L1, N,N′-bis[(3-hydroxy-4-pyron-2-yl)methyl]-N,N′-dimethylethylendiamine]
- IC50 [1]: 30.5 µM
- IC50 [2]: 4.49 µM
- IC50 [3]: 22 µM
- IC50 [4]: 10.4 µM
- interruption of the cell cycle (tumour cell lines): interrupt the cell cycle of tumour cells in phase S and G2 in a concentration-dependent manner
- induction of apoptosis (hypodiploid cells) (tumour cell lines; tumour cells, propidium iodide): induce apoptosis
- block of the cell cycle (HL-60 cells): mainly blocked in phase S
- block of the cell cycle (HeLa cells): mainly blocked in phase S
- block of the cell cycle (JURKAT cells): severe block in G2
- block of the cell cycle (RH-4 cells): severe block in G2
- fragmentation of genomic DNA (U937 cells): concentration-dependent internucleosomic fragmentation

SMILES: CN1CCN(Cc2occc(=O)c2O)CCN(C)CCN(Cc2occc(=O)c2O)CC1 [Compound L9, 4(N),10(N)-bis[(3-hydroxy-4-pyron-2-yl)methyl]-1,7-dimethyl-1,4,7,10-tetraazacyclododecane]
- IC50 [5]: 1.45 to 2.31 µM
- interruption of the cell cycle (tumour cell lines): mainly blocked in phase G2
- block of the cell cycle (H-28 cells): moderate block in phase G1
- block of the cell cycle (HL-60 cells): moderate block in phase G1
- block of the cell cycle (HeLa cells): stop especially in phase S
- block of the cell cycle (JURKAT cells): stop especially in phase S
- fragmentation of genomic DNA (U937 cells): concentration-dependent internucleosomic fragmentation
